The text below walks through data of patent publication US20220340951A1, “MEASURING THE ANTIMICROBIAL SUSCEPTIBILITY OF MICROBES” (priority 2019, published 2022).

≈ marks a conversion by molar mass, not a printed value. Entries after “also recorded” stand apart in the source; their conditions may differ.

Series [1] in a line: Antibiotic screening: CV, EIS and DPV of antibiotic solutions (without gels) on gold screen printed electrode. In kind it is physicochemical. The following applies: antibiotic at typical working concentration, no gel; for Phase / Z at 100 kHz: EIS; for CDL / RSOLN: fitted EIS. As to the method:
CV measurements were performed by sweeping the potential between −0.3 V to 0.5 V with reference to the Ag electrode three times. Analysis was performed using the third measurement. Electrodes were also characterised using differential pulse voltammetry (DPV) across the same potential range as CV. Peak current (Ipk) was extracted from the DPV measurement. Electrodes were also characterised using EIS. […] The Nyquist and Bode impedance plots that were generated were fitted to the Randles' equivalent circuit to extract various impedance parameters. […] A wide spectrum of antibiotics were tested including amoxicillin, oxacillin, methicillin, ampicillin, chloramphenicol, gentamicin, streptomycin and carbenicillin. […] Amoxicillin was then tested in an agarose gel with and without FF-C present (FIG. 2 (b)). […] The majority of the parameters are taken from fitted EIS data alongside Ipk from DPV measurements.

For series [2], the system named is methicillin-resistant Staphylococcus aureus (MRSA: ATCC 43300). The experiment in a line: Electrochemical (EIS/DPV) bacterial growth profile on antibiotic-infused gel-modified electrode. In kind it is cell-based.
The subject of series [3] is MRSA. Description: Minimum inhibitory concentration by two-fold broth microdilution. The following applies: Staphylococcus aureus; strain not stated explicitly; printed in the MRSA context. In kind it is cell-based. For orientation: Broth dilution looks for growth in wells or tubes with falling amounts of substance.
In series [4] the test system is methicillin-resistant S. aureus (MRSA). Description: Gel streak plate growth (1 wt % agarose + LB Broth + FF-C). It is filed as cell-based, Staphylococcus aureus. The following applies: amoxicillin 8 μg/ml.
The test system of series [5] is sensitive S. aureus. The experiment in a line: Gel streak plate growth (1 wt % agarose + LB). The following applies: amoxicillin 8 μg/ml; with or without FF-C. In kind it is cell-based, Staphylococcus aureus.
Series [6] deals with Staphylococcus aureus (ATCC 29213). The experiment in a line: Electrochemical (EIS) bacterial growth profile on antibiotic-infused gel-modified electrode. In kind it is cell-based. The following applies: for Z at 100 kHz growth profile compared with baseline (no bacteria): antibiotic 8 μg/ml in gel, up to 150 minutes.
The test system of series [7] is E. coli (ATCC 25922). The experiment in a line: Minimum inhibitory concentration of streptomycin as used in E. coli gels. It is filed as cell-based. The following applies: Escherichia coli, ATCC25922.

What is called MIC is the lowest concentration found to suppress growth. Higher therefore signals a need for much substance. Turning to `CC1(C)S[C@@H]2[C@H](NC(=O)[C@H](N)c3ccc(O)cc3)C(=O)N2[C@H]1C(=O)O` [amoxicillin], in series [1], the “DPV Ipk” value is listed as 0.02 μA, the Phase is reported as 82.74 °, the “Z at 100 kHz” value is on record as 21.34 kΩ and the CDL is 0.53 μF. Also, in series [1], the RSOLN is given as 143.30 kΩ. Besides, the “change in Z (baseline subtracted)” value in series [2] (amoxicillin 8 μg/ml gel, over 30-100 minutes) is listed as ~11 Ω. In series [2] (amoxicillin 8 μg/ml in gel), the “Z at 100 kHz growth profile compared with baseline (no bacteria)” value was “does not imitate the baseline”. For the same molecule, the “DPV peak current (Ipk) growth profile, baseline subtracted” value in series [2] (amoxicillin 50 μg/ml gel) is reported as “almost completely flat”. For the same molecule, in series [2] (amoxicillin 50 μg/ml gel, 30-100 minutes), the “change in Z (baseline subtracted)” value is listed as “virtually no change in Z”. Moreover, the “Z at 100 kHz growth profile compared with baseline (no bacteria)” value in series [2] (amoxicillin 50 μg/ml in gel) is “very similar profile to the baseline measurement”. Besides, the MIC in series [3] was approximately 8 µg/mL (≈ 21.9 µM). Further, the “growth on streak plate” value in series [4] is reported as “displays growth either in the presence or absence of amoxicillin”. In addition, in series [5], the “growth on streak plate” value is on record as “completely inhibited; also recorded: unable to grow”. For the same molecule, the “baseline-subtracted Z at 100 kHz over time” value in series [6] (amoxicillin-laden gel 8 μg/ml, between 30 and 100 minutes) is reported as “unchanging”. Also, the “Z at 100 kHz growth profile compared with baseline (no bacteria)” value in series [6] was “almost identical response to the baseline response”.

With `CC1(C)S[C@@H]2[C@H](NC(=O)[C@H](N)c3ccccc3)C(=O)N2[C@H]1C(=O)O` [ampicillin], in series [1], the “DPV Ipk” value amounted to 0 μA, the Phase came out at 67.63 °, the “Z at 100 kHz” value turned out to be 10.88 kΩ and the CDL is recorded as 0.38 μF. Besides, the RSOLN in series [1] is 40.93 kΩ.

With `CC1(C)S[C@@H]2[C@H](NC(=O)C(C(=O)O)c3ccccc3)C(=O)N2[C@H]1C(=O)O` (stereo partly drawn) [carbenicillin], in series [1], the “DPV Ipk” value is 0 μA, the Phase was determined as 46.56 °, the “Z at 100 kHz” value stood at 7.54 kΩ and the CDL is reported as 0.44 μF. Also, the RSOLN in series [1] turned out to be 11.83 kΩ.

In the case of `O=C(N[C@H](CO)[C@H](O)c1ccc([N+](=O)[O-])cc1)C(Cl)Cl` [chloramphenicol], in series [1], the “DPV Ipk” value was 0.31 μA, the Phase was determined as 76.20 °, the “Z at 100 kHz” value is reported as 19.06 kΩ and the CDL came to 0.41 μF. For the same molecule, in series [1], the RSOLN came out at 94.39 kΩ.

Turning to `COc1cccc(OC)c1C(=O)N[C@@H]1C(=O)N2[C@@H]1SC(C)(C)[C@@H]2C(=O)O` [methicillin], in series [1], the “DPV Ipk” value amounted to 0.06 μA, the Phase came to 61.43 °, the “Z at 100 kHz” value worked out at 15.92 kΩ and the CDL came out at 0.53 μF. The RSOLN in series [1] was 67.30 kΩ.

Turning to `Cc1onc(-c2ccccc2)c1C(=O)N[C@@H]1C(=O)N2[C@@H]1SC(C)(C)[C@@H]2C(=O)O` [oxacillin], in series [1], the “DPV Ipk” value came out at 0 μA, the Phase was 111.17 °, the “Z at 100 kHz” value was 22.79 kΩ and the CDL was found to be 0.28 μF. Also, the RSOLN in series [1] was determined as 49.81 kΩ. In series [2] (oxacillin 8 μg/ml gel), the “Z growth curves for gels with and without oxacillin” value is “look very similar for gels with and without oxacillin”. For the same molecule, the “Z at 100 kHz growth profile compared with baseline (no bacteria)” value in series [6] is listed as “very similar Z profile to the baseline measurement”. Also, the “baseline-subtracted Z at 100 kHz over time” value in series [6] (oxacillin gel 8 μg/ml, up to ~70 minutes) is given as “remains fairly flat”.

Consider `[H]/N=C(/N)N[C@H]1[C@H](O)[C@@H](O)[C@H](O[C@@H]2O[C@@H](C)[C@](O)(C=O)[C@H]2O[C@@H]2O[C@@H](CO)[C@H](O)[C@@H](O)[C@@H]2NC)[C@@H](N/C(N)=N\[H])[C@@H]1O` [streptomycin], for which, in series [1], the “DPV Ipk” value is listed as 0 μA, the Phase stood at 58.51 °, the “Z at 100 kHz” value worked out at 16.45 kΩ and the CDL is recorded as 0.58 μF. The RSOLN in series [1] was found to be 55.85 kΩ. Further, the MIC in series [7] was approximately 4 µg/mL (≈ 6.88 µM).

As to gentamicin, in series [1], the “DPV Ipk” value is 0.01 μA, the Phase came to 31.68 °, the “Z at 100 kHz” value amounted to 6.05 kΩ and the CDL is listed as 0.77 μF. In series [1], this molecule displayed an RSOLN of 7.97 kΩ.
